This passage reports remaining binding results from PMC10507085, “Pharmacological inhibition of TBK1/IKKε blunts immunopathology in a murine model of SARS-CoV-2 infection” (Nature Communications, 2023).

What all share (experiment): biochemical
Parameters in all cases: KINOMEscan competition binding, DNA-tagged kinase against immobilised ligand, qPCR read-out
What all share (settings): read-out: Percent Control

For test [1], the target named is T1, ADRBK2 (Homo sapiens, UniProt P35626).
T1 construct: gene GRK3
T1 sequence (P35626 whole entry): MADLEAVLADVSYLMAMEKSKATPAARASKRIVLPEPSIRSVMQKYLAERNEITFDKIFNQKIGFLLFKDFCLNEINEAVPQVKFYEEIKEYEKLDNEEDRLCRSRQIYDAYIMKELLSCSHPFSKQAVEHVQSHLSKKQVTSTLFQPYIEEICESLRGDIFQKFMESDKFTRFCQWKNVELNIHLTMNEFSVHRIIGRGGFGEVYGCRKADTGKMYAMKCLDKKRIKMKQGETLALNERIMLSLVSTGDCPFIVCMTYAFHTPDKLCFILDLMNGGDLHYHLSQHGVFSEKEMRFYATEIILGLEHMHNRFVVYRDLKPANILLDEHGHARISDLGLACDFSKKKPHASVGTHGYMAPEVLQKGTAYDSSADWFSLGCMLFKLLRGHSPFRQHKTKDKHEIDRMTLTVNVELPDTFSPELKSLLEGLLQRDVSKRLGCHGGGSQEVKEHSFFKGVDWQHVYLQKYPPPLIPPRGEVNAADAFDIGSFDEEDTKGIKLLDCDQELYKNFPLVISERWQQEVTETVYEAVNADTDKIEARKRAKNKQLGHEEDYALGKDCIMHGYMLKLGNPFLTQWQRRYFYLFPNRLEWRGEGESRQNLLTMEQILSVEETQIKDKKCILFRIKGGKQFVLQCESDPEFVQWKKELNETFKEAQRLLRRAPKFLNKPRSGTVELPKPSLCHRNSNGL

In test [2] the target is BRSK1 (Homo sapiens, UniProt Q8TDC3).
In test [3] the target is BUB1 (Homo sapiens, UniProt O43683).
In test [4] the target is CDK3 (Homo sapiens, UniProt Q00526).
CDK3, sequence (Q00526 whole entry): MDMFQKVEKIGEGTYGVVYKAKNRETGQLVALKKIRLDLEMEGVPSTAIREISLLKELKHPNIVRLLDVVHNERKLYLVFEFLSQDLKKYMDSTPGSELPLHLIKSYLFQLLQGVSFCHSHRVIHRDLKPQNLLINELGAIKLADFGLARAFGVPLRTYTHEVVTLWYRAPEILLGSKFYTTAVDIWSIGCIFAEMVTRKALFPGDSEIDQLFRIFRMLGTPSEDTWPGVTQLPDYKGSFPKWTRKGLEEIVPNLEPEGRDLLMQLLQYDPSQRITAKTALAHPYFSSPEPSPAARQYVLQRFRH
Test [5] deals with CSNK1G2 (Homo sapiens, UniProt P78368).
Test [6] has as its target EIF2AK2 (Homo sapiens, UniProt P19525).
The target of test [7] is FER (Homo sapiens, UniProt P16591).
FER, sequence (P16591 whole entry): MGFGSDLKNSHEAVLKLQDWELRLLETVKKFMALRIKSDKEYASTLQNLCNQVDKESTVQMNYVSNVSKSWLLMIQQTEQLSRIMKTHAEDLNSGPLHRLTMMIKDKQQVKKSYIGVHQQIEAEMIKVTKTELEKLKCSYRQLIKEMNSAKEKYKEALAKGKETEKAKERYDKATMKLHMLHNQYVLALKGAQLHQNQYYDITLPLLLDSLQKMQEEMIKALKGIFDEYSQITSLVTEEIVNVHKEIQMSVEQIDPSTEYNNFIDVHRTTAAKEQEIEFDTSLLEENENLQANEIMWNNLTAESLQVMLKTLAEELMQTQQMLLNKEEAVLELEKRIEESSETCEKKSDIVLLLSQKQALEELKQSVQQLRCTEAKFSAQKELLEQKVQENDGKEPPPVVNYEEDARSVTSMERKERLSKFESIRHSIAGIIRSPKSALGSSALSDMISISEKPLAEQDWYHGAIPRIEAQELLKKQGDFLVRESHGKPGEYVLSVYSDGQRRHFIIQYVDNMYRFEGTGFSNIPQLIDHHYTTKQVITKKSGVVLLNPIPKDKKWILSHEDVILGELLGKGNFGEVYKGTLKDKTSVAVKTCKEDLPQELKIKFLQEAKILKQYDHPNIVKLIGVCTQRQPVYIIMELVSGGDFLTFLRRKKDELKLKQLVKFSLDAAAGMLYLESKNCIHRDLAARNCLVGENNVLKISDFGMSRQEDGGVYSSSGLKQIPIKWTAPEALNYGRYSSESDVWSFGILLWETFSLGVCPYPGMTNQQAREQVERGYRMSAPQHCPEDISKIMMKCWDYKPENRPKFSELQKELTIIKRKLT
The target of test [8] is FGR (Homo sapiens, UniProt P09769).
Test [9] deals with GAK (Homo sapiens, UniProt O14976).
Test [10] concerns the target T2, JAK2(JH1domain-catalytic) (Homo sapiens, UniProt O60674).
T2 construct: JH1 domain catalytic

The target in test [11] is LRRK2 (Homo sapiens, UniProt Q5S007).
Test [12] addresses MAP2K1 (Homo sapiens, UniProt Q02750).
The target of test [13] is MAP2K6 (Homo sapiens, UniProt P52564).
Test [14] deals with MAPK3 (Homo sapiens, UniProt P27361).
MAPK3, sequence (P27361 whole entry): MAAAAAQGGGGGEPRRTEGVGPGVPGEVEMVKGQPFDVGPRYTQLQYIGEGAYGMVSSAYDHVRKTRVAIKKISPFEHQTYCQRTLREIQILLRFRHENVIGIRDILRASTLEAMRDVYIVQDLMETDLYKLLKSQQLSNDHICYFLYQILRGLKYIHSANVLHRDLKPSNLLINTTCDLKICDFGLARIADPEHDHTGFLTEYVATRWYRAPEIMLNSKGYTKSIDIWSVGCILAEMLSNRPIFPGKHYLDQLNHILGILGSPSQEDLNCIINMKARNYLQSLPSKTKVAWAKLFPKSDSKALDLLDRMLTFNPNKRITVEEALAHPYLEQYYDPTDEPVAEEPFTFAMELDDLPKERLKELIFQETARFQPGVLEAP
The target in test [15] is MARK3 (Homo sapiens, UniProt P27448).
In test [16] the target is MATK (Homo sapiens, UniProt P42679).
MATK, sequence (P42679 whole entry): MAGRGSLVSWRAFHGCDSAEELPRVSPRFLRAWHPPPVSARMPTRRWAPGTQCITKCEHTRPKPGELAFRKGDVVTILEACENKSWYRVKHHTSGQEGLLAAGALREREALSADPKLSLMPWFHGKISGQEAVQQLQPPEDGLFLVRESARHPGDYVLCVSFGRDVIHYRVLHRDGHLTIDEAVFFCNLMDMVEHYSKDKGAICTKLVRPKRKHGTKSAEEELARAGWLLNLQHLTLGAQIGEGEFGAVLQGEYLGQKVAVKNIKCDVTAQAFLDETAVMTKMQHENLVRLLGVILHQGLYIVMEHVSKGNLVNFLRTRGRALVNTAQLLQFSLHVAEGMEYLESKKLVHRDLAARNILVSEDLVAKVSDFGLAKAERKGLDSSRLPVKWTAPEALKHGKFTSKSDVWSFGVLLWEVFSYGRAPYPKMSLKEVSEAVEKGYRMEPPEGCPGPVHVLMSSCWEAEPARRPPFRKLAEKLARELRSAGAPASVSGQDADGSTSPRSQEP
Test [17] deals with PIM3 (Homo sapiens, UniProt Q86V86).
Test [18] has as its target PLK3 (Homo sapiens, UniProt Q9H4B4).
Test [19] deals with PRKACA (Homo sapiens, UniProt P17612).
Test [20] has as its target PRKD1 (Homo sapiens, UniProt Q15139).

SMILES strings stand for the structures.

T2 sequence (O60674 whole entry, the tested form may be a part): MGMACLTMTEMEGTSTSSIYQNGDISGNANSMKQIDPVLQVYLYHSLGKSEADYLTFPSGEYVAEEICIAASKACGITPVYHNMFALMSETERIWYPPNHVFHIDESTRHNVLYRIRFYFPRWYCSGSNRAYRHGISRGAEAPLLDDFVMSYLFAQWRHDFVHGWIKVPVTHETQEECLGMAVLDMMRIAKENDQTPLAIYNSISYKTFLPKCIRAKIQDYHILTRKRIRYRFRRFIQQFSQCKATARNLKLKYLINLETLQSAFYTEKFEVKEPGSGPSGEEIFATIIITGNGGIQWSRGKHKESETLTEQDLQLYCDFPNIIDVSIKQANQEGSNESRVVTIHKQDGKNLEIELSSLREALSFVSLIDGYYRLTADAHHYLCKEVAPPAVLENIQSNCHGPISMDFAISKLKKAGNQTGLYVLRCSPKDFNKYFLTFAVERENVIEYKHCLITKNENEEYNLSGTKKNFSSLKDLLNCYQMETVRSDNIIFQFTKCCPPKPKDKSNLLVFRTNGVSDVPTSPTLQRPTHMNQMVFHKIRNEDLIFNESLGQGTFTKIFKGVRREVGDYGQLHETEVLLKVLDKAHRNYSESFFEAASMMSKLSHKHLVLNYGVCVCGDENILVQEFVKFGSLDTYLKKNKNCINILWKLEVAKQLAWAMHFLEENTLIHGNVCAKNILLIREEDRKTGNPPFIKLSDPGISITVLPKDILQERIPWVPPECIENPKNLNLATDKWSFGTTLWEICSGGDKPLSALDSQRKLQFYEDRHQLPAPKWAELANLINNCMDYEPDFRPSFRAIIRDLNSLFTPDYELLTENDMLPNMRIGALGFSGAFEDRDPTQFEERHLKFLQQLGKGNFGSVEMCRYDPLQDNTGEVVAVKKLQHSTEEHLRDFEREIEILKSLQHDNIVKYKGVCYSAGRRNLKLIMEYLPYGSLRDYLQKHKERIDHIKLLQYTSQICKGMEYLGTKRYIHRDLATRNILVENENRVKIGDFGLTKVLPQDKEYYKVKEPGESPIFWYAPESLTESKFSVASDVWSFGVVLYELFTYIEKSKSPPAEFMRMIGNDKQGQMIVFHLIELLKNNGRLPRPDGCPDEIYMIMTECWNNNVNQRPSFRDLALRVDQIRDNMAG
PRKD1, sequence (Q15139 whole entry): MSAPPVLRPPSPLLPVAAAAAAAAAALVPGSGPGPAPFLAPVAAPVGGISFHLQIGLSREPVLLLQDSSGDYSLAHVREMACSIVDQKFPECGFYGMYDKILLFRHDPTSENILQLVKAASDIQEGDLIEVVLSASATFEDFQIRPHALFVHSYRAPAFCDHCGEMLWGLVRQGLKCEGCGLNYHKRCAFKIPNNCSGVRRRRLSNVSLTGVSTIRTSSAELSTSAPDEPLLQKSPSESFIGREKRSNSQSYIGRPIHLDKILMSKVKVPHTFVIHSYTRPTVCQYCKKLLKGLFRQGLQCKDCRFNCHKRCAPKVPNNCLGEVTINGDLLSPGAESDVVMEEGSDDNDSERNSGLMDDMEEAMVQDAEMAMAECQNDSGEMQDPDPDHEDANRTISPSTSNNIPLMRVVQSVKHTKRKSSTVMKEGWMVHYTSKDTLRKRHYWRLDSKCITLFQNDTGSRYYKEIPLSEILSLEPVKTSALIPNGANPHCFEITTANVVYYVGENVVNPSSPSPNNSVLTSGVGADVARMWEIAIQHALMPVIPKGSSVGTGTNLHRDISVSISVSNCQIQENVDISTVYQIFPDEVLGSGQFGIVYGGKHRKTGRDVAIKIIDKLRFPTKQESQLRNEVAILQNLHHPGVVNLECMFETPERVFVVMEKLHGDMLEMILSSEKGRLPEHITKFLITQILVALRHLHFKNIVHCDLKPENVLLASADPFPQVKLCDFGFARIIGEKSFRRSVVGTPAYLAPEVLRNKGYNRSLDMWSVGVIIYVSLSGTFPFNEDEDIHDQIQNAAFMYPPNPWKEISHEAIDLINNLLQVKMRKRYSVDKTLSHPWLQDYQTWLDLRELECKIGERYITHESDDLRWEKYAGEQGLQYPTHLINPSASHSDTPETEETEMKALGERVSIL

Consider `Oc1ccc(C2=Cc3ccc(O)cc3OC2)cc1` [compound 1, idronoxil], for which the remaining binding at 10 µM in test [1] was determined as 85%; in test [2], 76%; in test [3], 91%; in test [4], 89%; in [5] it was 82%; in test [6], 85%. For the same compound, the remaining binding at 10 µM in [7] came out at 78%; in test [8] it was 74%; in test [9], 58%; in test [10] it was 81%; in test [11] it was 90%; in [12], 86%. Besides, the remaining binding at 10 µM in test [13] is 85%; in test [14] it was 94%; in test [15] it was 100%; in test [16], 61%; in [17] it was 40%; in test [18], 100%. In addition, the values for the remaining binding at 10 µM in [19] and in test [20] were 78% and 96%, respectively.
